Experiment [1] relates to Micrococcus luteus. Description: Antimicrobial activity against Micrococcus luteus. The format is functional.
The test system of experiment [2] is Neurospora crassa. The experiment is described as follows: Antimicrobial activity against Neurospora crassa. It counts as functional.

Converted amounts (≈) assume the structure as drawn.

Take `C[C@@H]1C[C@H](O)/C=C/[C@@H](O)/C=C\C(=O)O1` [MODIOLIDE A]: the MIC came to 16.7 µg/mL (≈ 84.3 µM) in experiment [1] and 33.3 µg/mL (≈ 168 µM) in experiment [2].

For the molecule `C[C@@H]1CC/C=C/[C@@H](O)/C=C\C(=O)O1` [MODIOLIDE B], the MIC in experiment [1] was determined as 16.7 µg/mL (≈ 91.6 µM); in experiment [2], 33.3 µg/mL (≈ 183 µM).

The record behind these values is ChEMBL document CHEMBL1150682, “Modiolides A and B, two new 10-membered macrolides from a marine-derived fungus” (2003).
